Laboratory results published in PubChem BioAssay (NCI).
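GI50: concentration for 50% inhibition of growth. TGI marks complete inhibition of growth.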

What was measured:
Assay in all cases: inhibition of tumour cell growth, NCI panel, 384-well format
MDA-MB-435 melanoma = tested on: MDA-MB-435 melanoma
SK-MEL-5 melanoma = tested on: SK-MEL-5 melanoma
HT29 colon = tested on: HT29 colon
786-0 renal = tested on: 786-0 renal
HL-60(TB) leukemia = tested on: HL-60(TB) leukemia
CAKI-1 renal = tested on: CAKI-1 renal
SN12C renal = tested on: SN12C renal
HCC-2998 colon = tested on: HCC-2998 colon
HCT-15 colon = tested on: HCT-15 colon
NCI-H226 lung = tested on: NCI-H226 lung
NCI-H522 lung = tested on: NCI-H522 lung
T-47D breast = tested on: T-47D breast
SF-539 CNS = tested on: SF-539 CNS
TK-10 renal = tested on: TK-10 renal
MDA-MB-231 breast = tested on: MDA-MB-231 breast
ACHN renal = tested on: ACHN renal
SK-MEL-28 melanoma = tested on: SK-MEL-28 melanoma
MCF7 breast = tested on: MCF7 breast
RXF 393 renal = tested on: RXF 393 renal
MALME-3M melanoma = tested on: MALME-3M melanoma
NCI/ADR-RES ovarian = tested on: NCI/ADR-RES ovarian
BT-549 breast = tested on: BT-549 breast
NCI-H460 NSCLC = tested on: NCI-H460 NSCLC
MDA-MB-468 breast = tested on: MDA-MB-468 breast
PC-3 prostate = tested on: PC-3 prostate
CCRF-CEM leukemia = tested on: CCRF-CEM leukemia
A549 NSCLC = tested on: A549 NSCLC
COLO 205 colon = tested on: COLO 205 colon
KM12 colon = tested on: KM12 colon
A498 renal = tested on: A498 renal
SF-295 CNS = tested on: SF-295 CNS
OVCAR-3 ovarian = tested on: OVCAR-3 ovarian
SNB-75 CNS = tested on: SNB-75 CNS
SF-268 CNS = tested on: SF-268 CNS
NCI-H322M lung = tested on: NCI-H322M lung
SR leukemia = tested on: SR leukemia
UO-31 renal = tested on: UO-31 renal
UACC-257 melanoma = tested on: UACC-257 melanoma
OVCAR-5 ovarian = tested on: OVCAR-5 ovarian
RPMI-8226 leukemia = tested on: RPMI-8226 leukemia
NCI-H23 lung = tested on: NCI-H23 lung
LOX IMVI melanoma = tested on: LOX IMVI melanoma
HOP-92 NSCLC = tested on: HOP-92 NSCLC
SNB-19 CNS = tested on: SNB-19 CNS
HCT-116 colon = tested on: HCT-116 colon
K-562 leukemia = tested on: K-562 leukemia
SK-MEL-2 melanoma = tested on: SK-MEL-2 melanoma

Q: Which results are given for C[C@@H](Nc1nc(N[C@H](C)C(F)(F)F)nc(-c2cccc(Cl)n2)n1)C(F)(F)F?
A: GI50 (MDA-MB-435 melanoma): > 77.9 µM; TGI (MDA-MB-435 melanoma): > 100 µM; GI50 (SK-MEL-5 melanoma): 28.2 µM; TGI (SK-MEL-5 melanoma): > 100 µM; GI50 (HT29 colon): > 100 µM; TGI (HT29 colon): > 100 µM; GI50 ([…]-0 renal): 33.2 µM; TGI (786-0 renal): > 76.3 µM; GI50 (HL-60(TB) leukemia): > 85.3 µM; TGI (HL-60(TB) leukemia): > 100 µM; GI50 (CAKI-1 renal): 33.6 µM; TGI (CAKI-1 renal): > 73.8 µM; GI50 (SN12C renal): > 62.6 µM; TGI (SN12C renal): > 100 µM; GI50 (HCC-2998 colon): > 80.1 µM; TGI (HCC-2998 colon): > 100 µM; GI50 (HCT-15 colon): > 100 µM; TGI (HCT-15 colon): > 100 µM; GI50 (NCI-H226 lung): 84.7 µM; TGI (NCI-H226 lung): > 100 µM; GI50 (NCI-H522 lung): > 100 µM; TGI (NCI-H522 lung): > 100 µM; GI50 (T-47D breast): > 84.3 µM; TGI (T-47D breast): > 100 µM; GI50 (SF-539 CNS): > 69.1 µM; TGI (SF-539 CNS): > 100 µM; GI50 (TK-10 renal): > 52.4 µM; TGI (TK-10 renal): > 90.1 µM; GI50 (MDA-MB-231 breast): 27.9 µM; TGI (MDA-MB-231 breast): > 83.3 µM; GI50 (ACHN renal): > 100 µM; TGI (ACHN renal): > 100 µM; GI50 (SK-MEL-28 melanoma): > 100 µM; TGI (SK-MEL-28 melanoma): > 100 µM; GI50 (MCF7 breast): 14.5 µM; TGI (MCF7 breast): > 100 µM; GI50 (RXF 393 renal): 24.2 µM; TGI (RXF 393 renal): 58.8 µM; GI50 (MALME-3M melanoma): > 66 µM; TGI (MALME-3M melanoma): > 100 µM; GI50 (NCI/ADR-RES ovarian): > 82.3 µM; TGI (NCI/ADR-RES ovarian): > 100 µM; GI50 (BT-549 breast): 32.5 µM; TGI (BT-549 breast): > 70.3 µM; GI50 (NCI-H460 NSCLC): 36.4 µM; TGI (NCI-H460 NSCLC): > 100 µM; GI50 (MDA-MB-468 breast): 20.9 µM; TGI (MDA-MB-468 breast): > 90.2 µM; GI50 (PC-3 prostate): > 51.1 µM; TGI (PC-3 prostate): > 80.9 µM; GI50 (CCRF-CEM leukemia): > 100 µM; TGI (CCRF-CEM leukemia): > 100 µM; GI50 (A549 NSCLC): > 51.8 µM; TGI (A549 NSCLC): > 83 µM; GI50 (COLO 205 colon): > 100 µM; TGI (COLO 205 colon): > 100 µM; GI50 (KM12 colon): > 91.7 µM; TGI (KM12 colon): > 100 µM; GI50 (A498 renal): 32.9 µM; TGI (A498 renal): > 72.4 µM; GI50 (SF-295 CNS): > 83.8 µM; TGI (SF-295 CNS): > 100 µM; GI50 (OVCAR-3 ovarian): 28.8 µM; TGI (OVCAR-3 ovarian): > 100 µM; GI50 (SNB-75 CNS): 29.5 µM; TGI (SNB-75 CNS): > 75.4 µM; GI50 (SF-268 CNS): 39.6 µM; TGI (SF-268 CNS): > 100 µM; GI50 (NCI-H322M lung): > 100 µM; TGI (NCI-H322M lung): > 100 µM; GI50 (SR leukemia): > 77.3 µM; TGI (SR leukemia): > 100 µM; GI50 (UO-31 renal): > 100 µM; TGI (UO-31 renal): > 100 µM; GI50 (UACC-257 melanoma): 98.4 µM; TGI (UACC-257 melanoma): > 100 µM; GI50 (OVCAR-5 ovarian): > 100 µM; TGI (OVCAR-5 ovarian): > 100 µM; GI50 (RPMI-8226 leukemia): > 75.8 µM; TGI (RPMI-8226 leukemia): > 100 µM; GI50 (NCI-H23 lung): > 49.9 µM; TGI (NCI-H23 lung): > 89.7 µM; GI50 (LOX IMVI melanoma): > 100 µM; TGI (LOX IMVI melanoma): > 100 µM; GI50 (HOP-92 NSCLC): 43 µM; TGI (HOP-92 NSCLC): > 100 µM; GI50 (SNB-19 CNS): > 82.4 µM; TGI (SNB-19 CNS): > 100 µM; GI50 (HCT-116 colon): 89.3 µM; TGI (HCT-116 colon): > 100 µM; GI50 (K-562 leukemia): > 100 µM; TGI (K-562 leukemia): > 100 µM; GI50 (SK-MEL-2 melanoma): 14.6 µM; TGI (SK-MEL-2 melanoma): 30.2 µM

Q: Which results are given for Cc1cc(F)c(C(=O)Nc2cccc(-c3nncn3C(C)C)n2)cc1-n1cnc(C2CC2)c1?
A: GI50 (MDA-MB-435 melanoma): 13.2 µM; TGI (MDA-MB-435 melanoma): 30 µM; GI50 (SK-MEL-5 melanoma): 6.96 µM; TGI (SK-MEL-5 melanoma): 19.3 µM; GI50 (HT29 colon): 22 µM; TGI (HT29 colon): > 94.4 µM; GI50 ([…]-0 renal): 15 µM; TGI (786-0 renal): 40.4 µM; GI50 (HL-60(TB) leukemia): 6.26 µM; TGI (HL-60(TB) leukemia): 18.3 µM; GI50 (CAKI-1 renal): 12.6 µM; TGI (CAKI-1 renal): 31.4 µM; GI50 (SN12C renal): 19.4 µM; TGI (SN12C renal): > 93.6 µM; GI50 (HCC-2998 colon): 16.7 µM; TGI (HCC-2998 colon): 57.2 µM; GI50 (HCT-15 colon): 17.6 µM; TGI (HCT-15 colon): 45.3 µM; GI50 (NCI-H226 lung): 12.6 µM; TGI (NCI-H226 lung): 31.4 µM; GI50 (NCI-H522 lung): 3.31 µM; TGI (NCI-H522 lung): 13.7 µM; GI50 (T-47D breast): 3.42 µM; TGI (T-47D breast): 14.6 µM; GI50 (SF-539 CNS): 14.5 µM; TGI (SF-539 CNS): 42.6 µM; GI50 (TK-10 renal): 14.8 µM; TGI (TK-10 renal): > 68.2 µM; GI50 (MDA-MB-231 breast): 15.3 µM; TGI (MDA-MB-231 breast): > 85.9 µM; GI50 (ACHN renal): 11.5 µM; TGI (ACHN renal): 34.8 µM; GI50 (SK-MEL-28 melanoma): 17.8 µM; TGI (SK-MEL-28 melanoma): 35 µM; GI50 (MCF7 breast): 12.3 µM; TGI (MCF7 breast): 25.9 µM; GI50 (RXF 393 renal): 10.3 µM; TGI (RXF 393 renal): 25.2 µM; GI50 (MALME-3M melanoma): 15.2 µM; TGI (MALME-3M melanoma): 35 µM; GI50 (NCI/ADR-RES ovarian): 11.1 µM; TGI (NCI/ADR-RES ovarian): 23.6 µM; GI50 (BT-549 breast): 11.2 µM; TGI (BT-549 breast): 23.6 µM; GI50 (NCI-H460 NSCLC): 12.9 µM; TGI (NCI-H460 NSCLC): 43 µM; GI50 (MDA-MB-468 breast): 3.39 µM; TGI (MDA-MB-468 breast): 10.5 µM; GI50 (PC-3 prostate): 15.5 µM; TGI (PC-3 prostate): 30.2 µM; GI50 (CCRF-CEM leukemia): 7.73 µM; TGI (CCRF-CEM leukemia): 20.2 µM; GI50 (A549 NSCLC): 8.05 µM; TGI (A549 NSCLC): 66.6 µM; GI50 (COLO 205 colon): 3.83 µM; TGI (COLO 205 colon): 12.4 µM; GI50 (KM12 colon): 15.6 µM; TGI (KM12 colon): 30.6 µM; GI50 (A498 renal): 10.1 µM; TGI (A498 renal): > 76.6 µM; GI50 (SF-295 CNS): 15.4 µM; TGI (SF-295 CNS): 98.9 µM; GI50 (OVCAR-3 ovarian): 14.7 µM; TGI (OVCAR-3 ovarian): 41.1 µM; GI50 (SNB-75 CNS): 13.5 µM; TGI (SNB-75 CNS): 27.6 µM; GI50 (SF-268 CNS): 15 µM; TGI (SF-268 CNS): 47.7 µM; GI50 (NCI-H322M lung): 18.8 µM; TGI (NCI-H322M lung): 44.6 µM; GI50 (SR leukemia): 3.62 µM; TGI (SR leukemia): 11.2 µM; GI50 (UO-31 renal): 10.4 µM; TGI (UO-31 renal): 23.7 µM; GI50 (UACC-257 melanoma): 16.7 µM; TGI (UACC-257 melanoma): 31.2 µM; GI50 (OVCAR-5 ovarian): 23.9 µM; TGI (OVCAR-5 ovarian): > 80.5 µM; GI50 (RPMI-8226 leukemia): 2.09 µM; TGI (RPMI-8226 leukemia): 5.9 µM; GI50 (NCI-H23 lung): 4.62 µM; TGI (NCI-H23 lung): 16.8 µM; GI50 (LOX IMVI melanoma): 13.7 µM; TGI (LOX IMVI melanoma): 28.9 µM; GI50 (HOP-92 NSCLC): 17.7 µM; TGI (HOP-92 NSCLC): > 82.9 µM; GI50 (SNB-19 CNS): 22.6 µM; TGI (SNB-19 CNS): > 100 µM; GI50 (HCT-116 colon): 17.6 µM; TGI (HCT-116 colon): 71.1 µM; GI50 (K-562 leukemia): 5.52 µM; TGI (K-562 leukemia): 21.3 µM; GI50 (SK-MEL-2 melanoma): 19.9 µM; TGI (SK-MEL-2 melanoma): 35.5 µM
